“Also recorded” adds a separate entry of the source.

The test system of series [1] is oxygen consumption of the myocardium. Description: oxygen consumption of the myocardium (rate-pressure product). It counts as in vivo. Conditions: anaesthetized dog, 10 mg/kg intravenous, 100 before administration. On the procedure:
This comparative trial aimed at determining the respective capabilities of the two substances to reduce the oxygen consumption of the myocardium. This property was measured by the indirect method known as the "rate-pressure product" which is a widely used and accurate haemodynamic index of myocardial oxygen consumption.
This method requires two cardiovascular parameters to be measured simultaneously, namely the mean aortic systolic blood-pressure and the heart-rate.
The "rate-pressure product" is obtained by multiplying the number of heart beats per minute by the mean aortic systolic blood-pressure. This provides an index of the total amount of oxygen used by the myocardium over a period of one minute. As it thus represents an accurate indication of the oxygen consumption of the myocardium, any lowering of the "rate-pressure product" indicates a corresponding drop in the oxygen consumption of the myocardium.
These tests were carried out on dogs which had been previously anaesthetized with sodium pentobarbital (30 mg/kg by intravenous route).
In both cases, the injection of 10 mg/kg took 2 minutes to administer.

In another series the test system is myocardium. Conditions: background; cited from earlier work.
The next series concerns patient. Conditions: clinical use; background; cited from earlier work.

Regarding `CCCCc1oc2ccccc2c1C(=O)c1cc(I)c(OCCN(CC)CC)c(I)c1` [Amiodarone, reference compound], the “Oxygen Consumption (rate-pressure product)” value (from here on “Oxygen Consumption”) turned out to be 80.9 in series [1] (2.5 minutes after); 79.1 in series [1] (5 minutes after); 81.7 in series [1] (10 minutes after); 79.7 in series [1] (15 minutes after); 79.6 in series [1] (20 minutes after); 80.4 in series [1] (25 minutes after). The “Oxygen Consumption” value in series [1] (30 minutes after) was 80.2; in series [1] (35 minutes after) it was 79.6; in series [1] (40 minutes after) it was 79.6; in series [1] (45 minutes after), 79.6; in series [1] (50 minutes after), 80.9; in series [1] (55 minutes after), 80.0. Further, the “Oxygen Consumption” value in series [1] (60 minutes after) was determined as 79.1. Further, the “four qualities of an ideal anti-anginal agent” value in the series on myocardium was “possesses the four qualities”. Also, the side-effects entry in the series with patient was “microdeposit in the cornea; also recorded: in a few rare cases, the development of a cutaneous sensitivity to light which can lead to a slate-coloured pigmentation of the skin; also recorded: dysfunction of the thyroid gland”.

The values are drawn from patent US4117151A, “Therapeutic sulfonamides” (priority 1976, dated 1978).
